# Results published in patent US9249115B2, “N,N1 substituted piperazines having combined antiaggregant, anticoagulant and vasodilatory activity, and method for producing same” (Vertex Closed Joint Stock Company, priority 2011, dated 2016).
# Legend:
# [1] = tested on: Collagen-induced thrombocyte aggregation; assay: Collagen-induced thrombocyte aggregation, donor human thrombocyte enriched plasm; type: cell-based; conditions: collagen inductor; for MA, %: human thrombocyte plasm; for inhibition at 500 µM / inhibition at 1250 µM / inhibition at 2500 µM / inhibition at 5000 µM: Homo sapiens, read-out: (MA0-MAx): MA0 * 100%
# Method: (§1) The study of antiaggregant and anticoagulant properties of N,N′-substituted piperazines on the sample of donor human blood. The blood was collected by donor ulnar vein punction with dry sharp needle without syringe. The administration of drugs that influence on thrombocyte function was cancelled in 7÷10 days before the experiment.
# (§2) In graduated plastic centrifuge tube 1 ml of 3.8% basic trisodium citrate solution with pH=7.4 was placed. The ulnar vein was punctuated, the freely effluent blood was collected up to 10 ml mark, the mixture was instantly stirred to prevent air bubbles appearance. The collected and stabilized blood was split in two 5 ml portions in two tubes.
# (§3) To obtain thrombocyte enriched plasm the stabilized blood was spinned at 1000 rpm (150 g) for 8 min at room temperature. The repeated spinning of the blood at 3200 rpm (2300 g) for 20 min at 22° C. yielded thrombocyte depleted plasm.
# (§4) The study of anticoagulant activity was done within 2 h after thrombocyte enriched plasm obtaining. The plasm was normalized to achieve thrombocyte concentration of 200-250×10^9/L by addition of thrombocyte-free plasm. The concentration of thrombocytes was measured on SOLAR AR 2110 analyzer.
# (§5) Antiaggregant properties of N,N′-substituted piperazines were evaluated by their influence on thrombocyte aggregation in tests with ADP-, collagen- and ristocetin-induced aggregation. To dissolve N,N′-substituted piperazines and to dilute reagents Tris-HCl-buffer with pH=7.4 was used.
# (§6) As the general characteristic of thrombocyte aggregation activity the maximum amplitude (MA) of aggregation was taken on. That is the peak value of transmittance coefficient of the sample after aggregation agent introduction expressed in % relative to the transmittance of thrombocyte-free plasm. The response was registered on ascending linear segment of aggregation curve for 16 s.
# (§7) The measurements were done using 4-channel CHRONO-LOG 490-4D analyzer (CHRONO-LOG, USA). The temperature in the cell was 37° C., the spinning speed of magnetic stirrer was 1200 rpm.
# (§8) In a cuvette 0.5 ml of N,N′-substituted piperazine solution was placed, then 0.4 ml of normalized thrombocyte plasm was added. The mixture was stirred and incubated at 37° C. for 5 min. The cuvette was placed in aggregometer, then 0.05 ml of aggregation inductor solution was added (ADP or collagen or ristocetin). Thrombocyte aggregation was measured for 3 min.
# In collagen-induced thrombocyte aggregation test CHRONO-PAR COLLAGEN reagent (CHRONO-LOG, USA) was diluted with buffer solution until collagen concentration reached 10 µg/ml.
# [2] = tested on: ADP-induced thrombocyte aggregation; assay: ADP-induced thrombocyte aggregation, donor human thrombocyte enriched plasm; type: cell-based; conditions: ADP inductor; for MA, %: human thrombocyte plasm; for inhibition at 1250 µM / inhibition at 2500 µM / inhibition at 5000 µM / inhibition at 200 µM / inhibition at 500 µM: Homo sapiens, read-out: (MA0-MAx): MA0 * 100%
# Method: as §1, §2, §3, §4, §5, §6, §7, §8
# ADP-induced reversible thrombocyte aggregation test utilized CHRONO-PAR ADP reagent (CHRONO-LOG, USA) with 10 mol concentration. Primary (reversible) thrombocyte aggregation was evaluated by the response on addition of ADP threshold dose (ADP concentration is 1 mol) to plasm.
# [3] = tested on: Ristocetin-induced thrombocyte aggregation; assay: Ristocetin-induced thrombocyte aggregation, donor human thrombocyte enriched plasm; type: cell-based; conditions: ristocetin inductor; for MA (60 c), %: amplitude at 60 s
# Method: as §1, §2, §3, §4, §5, §6, §7, §8
# To study ristocetin-induced thrombocyte aggregation CHRONO-PAR RISTOCETIN reagent (CHRONO-LOG, USA) was diluted with buffer solution until ristocetin concentration reached 12 mg/ml. Thrombocyte aggregation amplitude was measured in 60 s after the beginning of the reaction.
# [4] = tested on: thrombocyte depleted plasm coagulation; assay: Activated partial thromboplastin time (APTT), anticoagulant properties; type: biochemical, human; conditions: for APTT: thrombocyte depleted plasm
# Method: as §1, §2, §3
# To study anticoagulant properties of N,N′-substituted piperazines activated partial thromboplastin time (APTT) was measured. That is the ability of N,N′-substituted piperazines to increase thrombocyte depleted plasm coagulation time compared to the ability of control sample. The set of reagents for APTT determination (Russian Scientific Research Institute of Hematology and Transfusiology Ministry of Health of Russian Federation by Technical Regulation 9398-214-01966456-99) and COAG-A-MATE® XM coagulometer (ORGANON TEKNIKA, USA) were used.
# The solutions of N,N′-substituted piperazines were mixed with thrombocyte depleted plasm at 1:1 ratio, then 0.1 ml of APTT reagent was added, the mixture was incubated in the cuvette for 5 min at 37° C., then 0.1 ml of 0.277% CaCl2 solution was added. The time of coagulation (in seconds) was measured.
SMILES,"MA, % ([1]; 0.5 mmol/L) [%]","MA, % ([1]; 1.25 mmol/L) [%]","MA, % ([1]; 2.5 mmol/L) [%]","MA, % ([1]; 5.0 mmol/L) [%]",inhibition at 500 µM ([1]; 0.5 mmol/L) [%],inhibition at 1250 µM ([1]; 1.25 mmol/L) [%],inhibition at 2500 µM ([1]; 2.5 mmol/L) [%],inhibition at 5000 µM ([1]; 5.0 mmol/L) [%],"MA, % ([2]; 1.25 mmol/L) [%]","MA, % ([2]; 2.50 mmol/L) [%]","MA, % ([2]; 5.0 mmol/L) [%]",inhibition at 1250 µM ([2]; 1.25 mmol/L) [%],inhibition at 2500 µM ([2]; 2.50 mmol/L) [%],inhibition at 5000 µM ([2]; 5.0 mmol/L) [%],(APTTx-APTT0): APTT0 * 100% ([4]; 1.7 mmol/L) [%],APTT ([4]; 1.7 mmol/L) [s],(APTTx-APTT0): APTT0 * 100% ([4]; 2.5 mmol/L) [%],APTT ([4]; 2.5 mmol/L) [s],(APTTx-APTT0): APTT0 * 100% ([4]; 4.1 mmol/L) [%],APTT ([4]; 4.1 mmol/L) [s],further results
"COc1ccc(C(=O)N2CCN(C(=N)NC(=N)N)CC2)c(OC)c1OC.Cl [Example 2, N-carbamidoyl-4-(2,3,4-trimethoxybenzoyl)piperazine-1-carboximidamide hydrochloride]",73.0 ± 7.3,65.10 ± 1.8,58.7 ± 2.9,24.1 ± 0.8,7.9,17.9,26,69.6,15.0 ± 1.8,8.7 ± 2.2,3.1 ± 0.8,21.1,55,84.2,,,,,,,
"COc1ccc(CN2CCN(C(=N)NC(=N)N)CC2)c(OC)c1OC.Cl [Example 4, N-carbamidoyl-4-(2,3,4-trimethoxybenzyl)piperazine-1-carboximidamide hydrochloride]",,59.0 ± 5.9,52.2 ± 7.9,26.2 ± 3.5,,22.1,31,65.4,10.6 ± 2.0,5.7 ± 1.1,1.7 ± 0.5,42.1,68.9,90.7,,,,,,,
"COc1ccc(CN2CCN(C(=N)N)CC2)c(OC)c1OC.O=C(O)/C=C/C(=O)O [Example 8, 4-(2,3,4-trimethoxybenzyl)piperazine-1-carboximidamide fumarate]",72.3 ± 6.3,63.5 ± 9.8,58.5 ± 9.6,51.3 ± 7.9,5.2,16.8,23.3,32.8,8.5 ± 2.8,2.5 ± 1.6,,55.3,86.8,,27.0,61.1 ± 4.4,56.5,71.3 ± 5.2,89.4,91.1 ± 9.9,"MA (60 c), % ([3]; 0.2 mmol/L): 60.4 ± 9.1%; (MAx-MA0): MA0 * 100% ([3]; 0.5 mmol/L): 16.1%; MA (60 c), % ([3]; 0.5 mmol/L): 50.7 ± 8.7%; (MAx-MA0): MA0 * 100% (Ozagrel: (MA0-MAx): MA0 * 100%) ([3]; 1.25 mmol/L): 20.5%; MA (60 c), % ([3]; 1.25 mmol/L): 48.0 ± 5.8%; (MAx-MA0): MA0 * 100% (Ozagrel: (MA0-MAx): MA0 * 100%) ([3]; 2.5 mmol/L): 35.1%; MA (60 c), % ([3]; 2.5 mmol/L): 39.2 ± 11.6%; (MAx-MA0): MA0 * 100% (Ozagrel: (MA0-MAx): MA0 * 100%) ([3]; 5.0 mmol/L): 44.7%; MA (60 c), % ([3]; 5.0 mmol/L): 33.4 ± 9.9%; (APTTx-APTT0): APTT0 * 100% ([4]; 8.3 mmol/L): 201.5%; APTT ([4]; 8.3 mmol/L): 145.0 ± 7.3 s; MA, % ([2]; 0.2 mmol/L): 18.5 ± 2.8%; MA, % ([2]; 0.5 mmol/L): 14.3 ± 3.0%; inhibition at 200 µM ([2]; 0.2 mmol/L): 2.6%; inhibition at 500 µM ([2]; 0.5 mmol/L): 24.7%"
"COc1cc(CN2CCN(C(=N)N)CC2)ccc1OCC(C)C.Cl [Example 12, 4-(4-(2-methylpropyloxy)-3-methoxybenzyl)piperazine-1-carboximidamide hydrochloride]",71.9 ± 5.1,63.1 ± 9.1,55.4 ± 9.0,51.0 ± 7.1,6.5,16.8,28,35,5.1 ± 2.2,1.7 ± 0.3,,67.5,89.2,,9.4,50.1 ± 4.0,38.0,63.2 ± 5.1,53.3,70.2 ± 3.2,"(APTTx-APTT0): APTT0 * 100% ([4]; 8.3 mmol/L): 205.7%; APTT ([4]; 8.3 mmol/L): 140.0 ± 4.7 s; MA, % ([2]; 0.2 mmol/L): 14.1 ± 2.0%; MA, % ([2]; 0.5 mmol/L): 11.2 ± 3.3%; inhibition at 200 µM ([2]; 0.2 mmol/L): 10.2%; inhibition at 500 µM ([2]; 0.5 mmol/L): 28.7%"
